Reference: patent publication US11667602B2, “Compounds and their use” (AstraZeneca AB, priority 2020, dated 2023)
≈ marks a conversion by molar mass, not a printed value.

How the values were obtained:
[1] = Rat Hepatocyte Stability (Test E); type: in vitro ADME; details: rat, hepatocytes, geometric mean if run multiple times
How it was run: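 Run per the published AstraZeneca-type rat hepatocyte stability protocol (Wernevik et al. panel). Values are mean intrinsic clearance, Clint in μl/min/10^6 cells; geometric mean used for repeated runs.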

[2] = molecular target: T1, human RXFP1 (Homo sapiens, UniProt Q9HBX9); assay: RXFP1 Hu cAMP (Test A); type: cell-based; design: expressed in transfected cells; host or cells: Jump-In T-REx CHO-K1 cells (ThermoFisher), induced with 10 ng/ml doxycycline for 24 h; details: RXFP1 Hu cAMP; for EC50: read-out: Test A EC50
T1 sequence (Q9HBX9 1-757): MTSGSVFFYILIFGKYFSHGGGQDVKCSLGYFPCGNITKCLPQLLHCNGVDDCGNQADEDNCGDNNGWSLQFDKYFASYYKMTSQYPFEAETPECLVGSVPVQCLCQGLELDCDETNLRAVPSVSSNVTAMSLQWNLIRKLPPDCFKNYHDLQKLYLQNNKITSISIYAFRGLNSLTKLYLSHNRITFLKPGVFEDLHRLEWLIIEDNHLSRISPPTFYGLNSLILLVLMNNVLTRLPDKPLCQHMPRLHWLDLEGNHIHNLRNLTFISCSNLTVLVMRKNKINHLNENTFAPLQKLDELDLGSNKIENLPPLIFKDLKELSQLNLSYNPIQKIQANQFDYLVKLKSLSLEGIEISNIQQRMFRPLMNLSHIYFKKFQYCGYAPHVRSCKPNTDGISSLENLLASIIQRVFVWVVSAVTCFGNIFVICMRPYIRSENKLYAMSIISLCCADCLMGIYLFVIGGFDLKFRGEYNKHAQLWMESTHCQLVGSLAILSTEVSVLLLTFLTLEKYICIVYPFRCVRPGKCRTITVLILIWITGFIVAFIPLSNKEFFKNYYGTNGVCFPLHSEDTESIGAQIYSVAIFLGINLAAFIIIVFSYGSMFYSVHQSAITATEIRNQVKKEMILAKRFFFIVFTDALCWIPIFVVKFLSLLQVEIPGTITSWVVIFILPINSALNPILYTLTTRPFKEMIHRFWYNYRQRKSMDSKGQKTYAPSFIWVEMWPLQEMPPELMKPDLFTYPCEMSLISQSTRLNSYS
How it was run: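 Competitive HTRF cAMP readout (2 h, room temperature) in CHO-K1 cells stably expressing human RXFP1, induced with 10 ng/ml doxycycline for 24 h; IBMX 0.5 mM final.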

[3] = Human Plasma Protein Binding (Test B); type: in vitro ADME; details: fraction unbound (fu)
How it was run: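 Human plasma protein binding run per the published Wernevik et al. (2020) integrated DMPK panel protocol. Values are fraction unbound (fu, % free); repeat runs averaged arithmetically.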

[4] = Human Liver Microsomal Stability (Test C); type: in vitro ADME; details: human, liver microsomes
How it was run: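 Human liver microsome incubation per the Wernevik et al. integrated DMPK panel protocol. Intrinsic clearance reported as CLint in μl/min/mg protein, averaged arithmetically over repeat runs.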

[5] = Solubility (Test F); type: physicochemical; details: arithmetic mean if run multiple times
Description: The assay was conducted according to the Solubility Assay described in pages 164-167 of Wernevik, J. et al., “A Fully Integrated Assay Panel for Early Drug Metabolism and Pharmacokinetics Profiling”, Assay and Drug Development Technologies, 2020, 18(4), 157-179. Data are reported in Table 36 as solubility ([…]. Where the assay was run multiple times for the same compound, the arithmetic mean is reported.

Row | hepatocyte CLint [1] [µL/min/1e6 cells] | Test A Sinf [2] [%] | EC50 [2] [nM] | Test B Human Plasma Protein Binding (% free) [3] [% free] | microsomal CLint [4] [µL/min/mg] | solubility [5] [µM] | SMILES
1 | 27 | 100 | 550 | 2.4 | 22 | 960 (≈ 500 µg/mL) | CCC(CC)CNC(=O)[C@H]1CCC[C@H]1NC(=O)c1cc(O[C@H]2CC[C@@](C)(C(=O)O)CC2)c(F)cc1OC [Example 59, (1S,4s)-4-(5-(((1R,2S)-2-((2-Ethylbutyl)carbamoyl)cyclopentyl)carbamoyl)-2-fluoro-4-methoxyphenoxy)-1-methylcyclohexane-1-carboxylic acid]
2 | 79 | 103 | 220 | 1.7 | 40 | 290 (≈ 164 µg/mL) | COc1cc(F)c(O[C@H]2CC[C@@H](C(=O)O)CC2)cc1C(=O)N[C@@H]1[C@H]2CC[C@H](C2)[C@@H]1C(=O)Nc1cccc(C(C)C)c1 [Example 196, (1S,4s)-4-(2-Fluoro-5-(((1S,2R,3S,4R)-3-((3-isopropylphenyl)carbamoyl)bicyclo[2.2.1]heptan-2-yl)carbamoyl)-4-methoxyphenoxy)cyclohexane-1-carboxylic acid]
3 | 20 | 110 | 18 | 0.24 | 27 | 80 (≈ 50.2 µg/mL) | COc1cc(F)c(O[C@H]2CC[C@@H](C(=O)O)CC2)cc1C(=O)N[C@@H]1[C@H]2CC[C@H](C2)[C@@H]1C(=O)Nc1ccc(Cl)c(C(F)(F)F)c1 [Example 186]
4 | 15 |  | > 9400 | 50 | < 3 | 920 (≈ 523 µg/mL) | COc1cc(C#N)c(O[C@H]2CC[C@@](C)(C(=O)O)CC2)cc1C(=O)N[C@@H]1[C@H]2CC[C@H](C2)[C@@H]1C(=O)NCC(=O)NC(C)C [Example 85]
5 | 30 |  | > 9400 | 28 | 11 | 950 (≈ 589 µg/mL) | COc1cc(C#N)c(O[C@H]2CC[C@@](C)(C(=O)O)CC2)cc1C(=O)N[C@@H]1[C@H]2CC[C@H](C2)[C@@H]1C(=O)N[C@]12CC3CC(C[C@@](O)(C3)C1)C2 [Example 113]
6 | 93 | 97 | 470 | 2.3 | 17 | 630 (≈ 355 µg/mL) | COc1cc(F)c(O[C@H]2CC[C@@H](C(=O)O)CC2)cc1C(=O)N[C@@H]1[C@H]2CC[C@H](C2)[C@@H]1C(=O)Nc1ccc(C)c(C#N)c1 [Example 19]
7 | 29 | 106 | 93 | 2.1 | 37 | > 1000 | COc1ccc(O[C@H]2CC[C@@H](C(=O)O)CC2)cc1C(=O)N[C@@H]1[C@H]2CC[C@H](C2)[C@@H]1C(=O)Nc1cccc(S(=O)(=O)C(F)(F)F)c1 [Example 466, (1S,4s)-4-(4-Methoxy-3-(((1S,2R,3S,4R)-3-((3-((trifluoromethyl)sulfonyl)phenyl)carbamoyl)bicyclo[2.2.1]heptan-2-yl)carbamoyl)phenoxy)cyclohexane-1-carboxylic acid]
8 | 36 | 97 | 120 | 0.76 | 74 | 300 (≈ 196 µg/mL) | COc1cc(C)c(O[C@H]2CC[C@@H](C(=O)O)CC2)cc1C(=O)N[C@@H]1[C@H]2CC[C@H](C2)[C@@H]1C(=O)Nc1cccc(S(=O)(=O)C(F)(F)F)c1 [Example 465, (1S,4s)-4-(4-Methoxy-2-methyl-5-(((1S,2R,3S,4R)-3-((3-((trifluoromethyl)sulfonyl)phenyl)carbamoyl)bicyclo[2.2.1]heptan-2-yl)carbamoyl)phenoxy)cyclohexane-1-carboxylic acid]
9 | 69 | 108 |  | 0.57 | 69 | 360 (≈ 238 µg/mL) | COc1cc(F)c(-c2ccc(/C=C/C(=O)O)nc2)cc1C(=O)N[C@@H]1[C@H]2CC[C@H](C2)[C@@H]1C(=O)Nc1cccc(S(=O)(=O)C(F)(F)F)c1 [Example 260, (E)-3-(5-(2-Fluoro-4-methoxy-5-(((1S,2R,3S,4R)-3-((3-((trifluoromethyl)sulfonyl)phenyl)carbamoyl)bicyclo[2.2.1]heptan-2-yl)carbamoyl)phenyl)pyridin-2-yl)acrylic acid]
10 | 18 | 114 | 220 | 12 | 11 | 850 (≈ 457 µg/mL) | COc1cc(C#N)c(O[C@H]2CC[C@@](C)(C(=O)O)CC2)cc1C(=O)N[C@@H]1[C@H]2CC[C@H](C2)[C@@H]1C(=O)N[C@H]1C[C@@H](C)C1 [Example 73]
11 | 17 | 95 | 470 | 16 | 6.8 | 830 (≈ 456 µg/mL) | COc1cc(C#N)c(O[C@H]2CC[C@@](C)(C(=O)O)CC2)cc1C(=O)N[C@@H]1[C@H]2CC[C@H](C2)[C@@H]1C(=O)NC1(C2CC2)CC1 [Example 112]
12 | 63 | 102 | 48 | 0.74 | 28 | 980 (≈ 596 µg/mL) | COc1cc(F)c(O[C@H]2CC[C@@H](C(=O)O)CC2)cc1C(=O)N[C@@H]1[C@H]2CC[C@H](C2)[C@@H]1C(=O)Nc1cccc(OC(F)(F)F)c1 [Example 20]
13 | 29 | 79 | 750 | 0.44 | 18 | 380 (≈ 242 µg/mL) | COc1cc(F)c(-c2cccc(CCC(=O)O)c2)cc1C(=O)N[C@@H]1CCC[C@@H]1C(=O)Nc1cccc(S(=O)(=O)C(F)(F)F)c1 [Example 319]
14 | 110 | 88 | > 5000 | 15 | < 3 | > 1000 | COc1cc(F)c(O[C@H]2CC[C@@H](C(=O)O)CC2)cc1C(=O)N[C@@H]1[C@H]2CC[C@H](C2)[C@@H]1C(=O)NC1CC(F)(F)C1 [Example 33, (1S,4s)-4-(5-(((1S,2R,3S,4R)-3-((3,3-Difluorocyclobutyl)carbamoyl)bicyclo[2.2.1]heptan-2-yl)carbamoyl)-2-fluoro-4-methoxyphenoxy)cyclohexane-1-carboxylic acid]
15 | 18 |  | > 40000 | 3.6 | < 3 | > 1000 | COc1cc(F)c(O[C@H]2CC[C@@H](C(=O)O)CC2)cc1C(=O)N[C@@H]1[C@H]2CC[C@H](C2)[C@@H]1C(=O)Nc1cc(Cl)cnn1 [Example 30, (1S,4s)-4-(5-(((1S,2R,3S,4R)-3-((5-Chloropyridazin-3-yl)carbamoyl)bicyclo[2.2.1]heptan-2-yl)carbamoyl)-2-fluoro-4-methoxyphenoxy)cyclohexane-1-carboxylic acid]
16 | 30 | 104 | 64 | 0.54 | 57 | 200 (≈ 144 µg/mL) | COc1cc(Br)c(O[C@H]2CC[C@@H](C(=O)O)CC2)cc1C(=O)N[C@@H]1[C@H]2CC[C@H](C2)[C@@H]1C(=O)Nc1cccc(S(=O)(=O)C(F)(F)F)c1 [Example 464, (1S,4s)-4-(2-Bromo-4-methoxy-5-(((1S,2R,3S,4R)-3-((3-((trifluoromethyl)sulfonyl)phenyl)carbamoyl)bicyclo[2.2.1]heptan-2-yl)carbamoyl)phenoxy)cyclohexane-1-carboxylic acid]
